Key:
Format in all cases: in vivo
Botrytis cinerea = experiment: Test C: tomato botrytis, preventive spray on tomato seedlings, visual disease rating; details: preventive spray at 40 ppm, rated after 48 h + 3 days; for pest or weed control at 40 ppm: Botrytis cinerea, 120 h, read-out: Test C disease control rating (100 = 100% disease control, 0 = no disease control relative to the controls)
In short: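 Compounds applied at 40 ppm (≈800 g/ha) in acetone/water with surfactant, sprayed to run-off on tomato seedlings. Inoculated next day with B. cinerea spores; 48 h saturated humidity at 20 °C, then 3 days at 27 °C. Visual rating as % disease control versus untreated controls.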

[1] = test system: Blumeria graminis f. sp. tritici; experiment: Test A: wheat powdery mildew, preventive spray on wheat seedlings, visual disease rating; details: preventive spray at 40 ppm, rated 8 days after inoculation; for pest or weed control at 40 ppm: Blumeria graminis, 192 h, read-out: Test A disease control rating (100 = 100% disease control, 0 = no disease control relative to the controls)
In short: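 Wheat seedlings sprayed to run-off with 40 ppm compound (equivalent to 800 g/ha) in acetone/water with 250 ppm surfactant, then dusted with B. graminis spores next day. Held at 20° C. for 8 days before visual rating, 0–100 scale as % disease control relative to controls.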

Septoria tritici = experiment: Test B: wheat leaf blotch, preventive spray on wheat seedlings, visual disease rating; details: preventive spray at 40 ppm, rated after 48 h + 19 days; for pest or weed control at 40 ppm: Zymoseptoria tritici, 504 h, read-out: Test B disease control rating (100 = 100% disease control, 0 = no disease control relative to the controls)
In short: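 Wheat seedlings were sprayed to run-off with 40 ppm compound (≈800 g/ha) in acetone/water with 250 ppm surfactant, then inoculated with Septoria tritici spores the next day. After 48 h saturated humidity at 20° C and 19 days in a growth chamber at 20° C, disease control was rated visually (0–100% vs controls).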

Structure (SMILES)	pest or weed control at 40 ppm (Botrytis cinerea) [%]	pest or weed control at 40 ppm [1] [%]	pest or weed control at 40 ppm (Septoria tritici) [%]	Test C disease control rating (100 = 100% disease control, 0 = no disease control relative to the controls) (Botrytis cinerea) [%]	Test A disease control rating (100 = 100% disease control, 0 = no disease control relative to the controls) [1] [%]	Test B disease control rating (100 = 100% disease control, 0 = no disease control relative to the controls) (Septoria tritici) [%]
CC(=O)C(Oc1ccc2ccc(Br)cc2c1)C(=O)NC(C)(C)C (stereo not drawn) [Compound 32]	26	0	0	–	–	–
COCC(C)(C)NC(=O)C(OC)Oc1cnc2ccc(I)cc2c1 (stereo not drawn) [Compound 65]	–	–	–	100	81	99
CCC(Oc1ccc2ccc(C)cc2c1)C(=O)NC(C)(C)COC (stereo not drawn) [Compound 159, N-(2-methoxy-1,1-dimethylethyl)-2-[(7-methyl-2-naphthalenyl)oxy]-butanamide]	99	99	13	–	–	–
CCC(Oc1cnc2ccc(F)cc2c1)C(=O)NC1(C#N)CC1 (stereo not drawn) [Compound 46]	–	–	–	0	0	0
CCC(Oc1ccc2ccc(OC)cc2c1)C(=O)NC(C)(C)COC (stereo not drawn) [Compound 88]	–	–	–	100	99	100
C#Cc1ccc2ccc(OC(OC)C(=O)NC(C)(C)COC)cc2c1 (stereo not drawn) [Compound 106, 2-[(7-ethynyl-2-naphthalenyl)oxy]-2-methoxy-N-(2-methoxy-1,1-dimethylethyl)acetamide]	99	100	100	–	–	–
CCC(C)(C)NC(=O)C(OC)Oc1ccc2ccc(Br)cc2c1 (stereo not drawn) [Compound 101]	–	–	–	100	92	100
C#CC(C)(C)NC(=O)C(CC)Oc1ccc2ccc(CCC)cc2c1 (stereo not drawn) [Compound 144]	–	–	–	98	99	93
C#CCOc1ccc2ccc(OC(CC)C(=O)NC(C)(C)C)cc2c1 (stereo not drawn) [Compound 134]	–	–	–	100	43	100
CCOc1ccc2ccc(OC(OCC)C(=O)NC(C)(C)COC)cc2c1 (stereo not drawn) [Compound 120]	–	–	–	98	90	99
C#CC(C)(C)NC(=O)C(OC)Oc1ccc2ccc(OCC)cc2c1 (stereo not drawn) [Compound 69, N-(1,1-dimethyl-2-propyn-1-yl)-2-[(7-ethoxy-2-naphthalenyl)oxy]-2-methoxyacetamide]	100	100	100	–	–	–
CCC(Oc1ccc2ccc(OC(F)F)cc2c1)C(=O)NC(C)(C)C (stereo not drawn) [Compound 5]	100	99	99	–	–	–
C#CC(C)(C)NC(=O)C(CC)Oc1ccc2ccc(OCC)cc2c1 (stereo not drawn) [Compound 76, N-(1,1-dimethyl-2-propyn-1-yl)-2-[(7-ethoxy-2-naphthalenyl)oxy]butanamide]	100	100	100	–	–	–
C#Cc1ccc2ncc(OC(OC)C(=O)NC(C)(C)COC)cc2c1 (stereo not drawn) [Compound 162]	–	–	–	100	100	100
CCc1ccc2ccc(OC(CC)C(=O)NC(C)(C)COC)cc2c1 (stereo not drawn) [Compound 138, 2-[(7-ethyl-2-naphthalenyl)oxy]-N-(2-methoxy-1,1-dimethylethyl)-butanamide]	100	99	83	–	–	–
C#CC(C)(C)NC(=S)C(CC)Oc1ccc2ccc(OC)cc2c1 (stereo not drawn) [Compound 164]	99	0	97	–	–	–
CCOc1ccc2ccc(OC(OC)C(=O)NC(C)(C)C#N)cc2c1 (stereo not drawn) [Compound 68]	–	–	–	100	100	100
CCC(Oc1cnc2ccc(Cl)cc2c1)C(=O)NC(C)(C)C (stereo not drawn) [Compound 40]	99	92	100	–	–	–
CCCOc1ccc2ccc(OC(CC)C(=O)NC(C)(C)COC)cc2c1 (stereo not drawn) [Compound 127]	–	–	–	99	94	99
C#CC(C)(C)NC(=O)C(CC)Oc1cnc2ccc(Br)cc2c1 (stereo not drawn) [Compound 38]	–	–	–	99	21	100
CC#Cc1ccc2ccc(OC(CC)C(=O)NC(C)(C)COC)cc2c1 (stereo not drawn) [Compound 107, N-(2-methoxy-1,1-dimethylethyl)-2-[[7-(1-propyn-1-yl)-2-naphthalenyl]oxy]butanamide]	99	100	100	–	–	–
CCOC(Oc1ccc2ccc(OC)cc2c1)C(=O)NC(C)(C)C (stereo not drawn) [Compound 114]	99	90	99	–	–	–
CCC(Oc1ccc2ccc(Br)cc2c1)C(=O)NC(C)(C)C#N (stereo not drawn) [Compound 1]	–	–	–	100	91	100
C#CCOc1ccc2ccc(OC(OC)C(=O)NC(C)(C)CC)cc2c1 (stereo not drawn) [Compound 137]	–	–	–	99	87	94
C#CC(C)(C)NC(=O)C(OCC)Oc1ccc2ccc(OCC)cc2c1 (stereo not drawn) [Compound 122]	–	–	–	98	0	100
CCC(Oc1cnc2ccc(I)cc2c1)C(=O)NC(C)(C)C (stereo not drawn) [Compound 51, N-(1,1-dimethylethyl)-2-[(6-iodo-3-quinolinyl)oxy]butanamide]	99	93	100	–	–	–

Source: patent US20120283216A1, “FUNGICIDAL 2-(BICYCLIC ARYLOXY)CARBOXAMIDES” (priority 2009, published 2012)
